In ChEMBL document CHEMBL1155971, “Discovery of a novel class of isoxazoline voltage gated sodium channel blockers” (Bioorg Med Chem Lett, 2009):

Experiments:
[1] = target: T1, Sodium channel protein type 9 subunit alpha (Homo sapiens, UniProt Q15858); assay: Inhibition of human Nav1.7 channel expressed in HEK cells at 1 uM by FRET assay; format: cell-based; settings: HEK293
Target sequence in this assay (Q15858 whole entry, looked up): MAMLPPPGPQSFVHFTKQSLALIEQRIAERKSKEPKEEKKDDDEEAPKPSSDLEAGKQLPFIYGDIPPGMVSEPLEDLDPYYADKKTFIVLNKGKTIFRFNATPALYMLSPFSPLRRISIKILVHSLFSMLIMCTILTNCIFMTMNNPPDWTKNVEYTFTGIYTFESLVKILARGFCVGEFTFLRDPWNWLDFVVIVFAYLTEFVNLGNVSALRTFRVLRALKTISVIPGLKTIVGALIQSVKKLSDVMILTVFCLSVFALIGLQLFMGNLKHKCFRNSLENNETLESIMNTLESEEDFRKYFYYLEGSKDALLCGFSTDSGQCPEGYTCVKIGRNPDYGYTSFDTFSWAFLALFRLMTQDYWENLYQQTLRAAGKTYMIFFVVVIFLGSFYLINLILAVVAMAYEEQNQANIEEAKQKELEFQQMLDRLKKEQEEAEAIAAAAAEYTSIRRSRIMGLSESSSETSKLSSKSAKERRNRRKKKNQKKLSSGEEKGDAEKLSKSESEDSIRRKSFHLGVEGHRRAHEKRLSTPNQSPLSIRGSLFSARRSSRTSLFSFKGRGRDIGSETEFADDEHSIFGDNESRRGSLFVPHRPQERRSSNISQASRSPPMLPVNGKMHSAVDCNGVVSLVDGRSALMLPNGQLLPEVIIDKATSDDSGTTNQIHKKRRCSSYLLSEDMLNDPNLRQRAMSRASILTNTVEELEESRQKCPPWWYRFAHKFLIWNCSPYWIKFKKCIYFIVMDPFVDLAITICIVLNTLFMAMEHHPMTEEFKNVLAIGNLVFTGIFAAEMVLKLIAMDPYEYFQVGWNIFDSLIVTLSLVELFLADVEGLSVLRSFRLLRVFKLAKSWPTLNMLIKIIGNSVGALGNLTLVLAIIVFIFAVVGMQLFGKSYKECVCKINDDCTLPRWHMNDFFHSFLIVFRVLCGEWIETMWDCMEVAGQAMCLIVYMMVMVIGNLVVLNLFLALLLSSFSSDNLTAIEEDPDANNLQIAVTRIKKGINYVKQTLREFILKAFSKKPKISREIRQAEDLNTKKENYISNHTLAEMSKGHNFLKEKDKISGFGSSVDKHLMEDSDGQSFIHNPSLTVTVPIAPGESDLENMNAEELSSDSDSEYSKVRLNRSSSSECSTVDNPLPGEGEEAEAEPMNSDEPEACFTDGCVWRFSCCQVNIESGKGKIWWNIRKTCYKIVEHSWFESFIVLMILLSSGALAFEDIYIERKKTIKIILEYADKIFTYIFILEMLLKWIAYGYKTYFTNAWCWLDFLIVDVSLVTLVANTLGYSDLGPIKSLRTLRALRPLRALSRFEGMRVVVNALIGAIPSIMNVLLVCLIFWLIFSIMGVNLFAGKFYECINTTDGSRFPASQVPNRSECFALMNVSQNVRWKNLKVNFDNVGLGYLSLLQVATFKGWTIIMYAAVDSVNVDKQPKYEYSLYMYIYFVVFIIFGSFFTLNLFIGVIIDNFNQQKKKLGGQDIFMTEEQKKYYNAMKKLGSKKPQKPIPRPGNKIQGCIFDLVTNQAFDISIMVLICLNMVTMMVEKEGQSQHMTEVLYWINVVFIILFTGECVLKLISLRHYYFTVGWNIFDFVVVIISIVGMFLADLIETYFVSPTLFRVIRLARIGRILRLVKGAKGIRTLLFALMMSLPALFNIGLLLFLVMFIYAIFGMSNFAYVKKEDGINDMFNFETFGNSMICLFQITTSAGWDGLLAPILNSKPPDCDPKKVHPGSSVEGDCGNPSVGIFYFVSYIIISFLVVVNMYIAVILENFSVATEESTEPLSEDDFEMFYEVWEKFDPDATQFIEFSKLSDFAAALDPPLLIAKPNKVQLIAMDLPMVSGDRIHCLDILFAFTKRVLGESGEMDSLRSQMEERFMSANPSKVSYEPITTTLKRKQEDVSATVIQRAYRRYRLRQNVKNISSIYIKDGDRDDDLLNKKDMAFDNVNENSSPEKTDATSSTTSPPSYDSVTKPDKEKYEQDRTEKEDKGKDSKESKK

[2] = target: T1, Sodium channel protein type 9 subunit alpha; assay: Inhibition of human Nav1.7 channel expressed in HEK cells by FRET assay; format: cell-based, HEK293
Target sequence in this assay (Q15858 whole entry): as the sequence (Q15858 whole entry, looked up) above

Rattus norvegicus [3] = assay: Analgesic activity in Freund's complete adjuvant-induced rat pain model assessed as reversal of mechanic allodynia at 3 mg/kg, po after 3 hrs; format: functional
Rattus norvegicus [4] = assay: Analgesic activity in Freund's complete adjuvant-induced rat pain model assessed as reversal of mechanic allodynia at 3 mg/kg, po after 2 hrs; format: functional
[5] = Bioavailability in Sprague-Dawley rat; format: ADME, organism-based; settings: in vivo
[6] = Plasma clearance in Sprague-Dawley rat; format: ADME, organism-based
[7] = Half life in Sprague-Dawley rat; format: ADME, organism-based; settings: in vivo
Rattus norvegicus [8] = assay: Analgesic activity in spinal nerve ligation-induced rat neuropathic pain model assessed as reversal of allodynia at 10 mg/kg, po after 3 hrs; format: functional
Rattus norvegicus [9] = assay: Analgesic activity in Freund's complete adjuvant-induced rat pain model assessed as reversal of mechanic allodynia at 10 mg/kg, po after 3 hrs; format: functional

| Structure (SMILES) | inhibition [1] | IC50 [2] | other results |
| --- | --- | --- | --- |
| O=C(NCc1ccc(OC(F)(F)F)cc1)[C@@H]1CCC[C@H]1C1=NC(c2ccc(Cl)cc2)CO1 (mixture of isomers) | 56% | 0.97 µM | – |
| O=C(NCc1ccc(OC(F)(F)F)cc1)[C@@H]1CCC[C@H]1C1=NOC(c2ccc(Cl)cc2)C1 (mixture of isomers) | 92% | 0.43 µM | – |
| O=C(NCc1ccc(OC(F)(F)F)cc1)[C@@H]1CCC[C@H]1C1=NOC(c2ccc(OC(F)(F)F)cc2)C1 (mixture of isomers) | 93% | 0.5 µM | – |
| O=C(NCc1ccc(OC(F)(F)F)cc1)[C@@H]1CCC[C@H]1C1=NOC(c2cccc(Cl)c2)C1 (mixture of isomers) | 90% | 0.48 µM | – |
| O=C(NCc1ccc(OC(F)(F)F)cc1)[C@@H]1CCC[C@H]1C1=NCC(c2ccccc2)O1 (mixture of isomers) | 71% | 0.62 µM | – |
| COC(=O)c1ccc(C2CC([C@@H]3CCC[C@H]3C(=O)NCc3ccc(OC(F)(F)F)cc3)=NO2)cc1 (mixture of isomers) | 87% | 0.34 µM | – |
| O=C(NCc1ccc(OC(F)(F)F)cc1)[C@@H]1CCC[C@H]1C1=NOC(c2ccccc2)C1 (mixture of isomers) | 76% | 0.78 µM | – |
| CC(C)Oc1ccc(CNC(=O)[C@@H]2CCC[C@H]2C2=NOC(C)(c3ccccc3)C2)cc1 (mixture of isomers) | – | 1.5 µM | – |
| CC1(c2ccccc2)CC([C@@H]2CCC[C@H]2C(=O)NCc2ccc(OC(F)(F)F)cc2)=NO1 (mixture of isomers) [listing 1 of 2 here] | – | 0.62 µM | Activity (Rattus norvegicus [3]; 3 mg/kg): 48%; Activity (Rattus norvegicus [4]): 20%; bioavailability [5]: 16%; clearance [6]: 1.07 L/h/kg; half-life [7]: 2.9 h |
| CC1(c2ccccc2)CC([C@@H]2CCC[C@H]2C(=O)NCc2ccc(C(F)(F)F)cc2)=NO1 (mixture of isomers) | – | 2.5 µM | – |
| COC(=O)c1cccc(C2CC([C@@H]3CCC[C@H]3C(=O)NCc3ccc(OC(F)(F)F)cc3)=NO2)c1 (mixture of isomers) | 75% | 0.71 µM | – |
| CC(C)(C)Oc1ccc(CNC(=O)[C@@H]2CCC[C@H]2C2=NOC(C)(c3ccccc3)C2)cc1 (mixture of isomers) | 26% | – | – |
| CC1(c2ccccc2)CC([C@@H]2CCC[C@H]2C(=O)NCc2ccc(-c3ccccc3S(C)(=O)=O)cc2)=NO1 (mixture of isomers) | 0% | – | – |
| CC1(c2ccccc2)CC([C@@H]2CCC[C@H]2C(=O)NCc2ccc(Cl)cc2)=NO1 (mixture of isomers) | 15% | – | – |
| CC1(c2ccccc2)CC([C@@H]2CCC[C@H]2C(=O)NCc2ccc(OC(F)(F)F)cc2)=NO1 (mixture of isomers) [listing 2 of 2 here] | 63% | – | – |
| CC1(c2ccccc2)CC([C@@H]2CCC[C@H]2C(=O)NCc2ccc(OC(F)(F)F)cc2S(C)(=O)=O)=NO1 (mixture of isomers) | 13% | – | – |
| CC1(c2ccccc2)CC([C@@H]2CCC[C@H]2C(=O)NCc2ccccc2)=NO1 (mixture of isomers) | 19% | – | – |
| CC1(c2ccccc2)CC([C@@H]2CCC[C@H]2C(=O)Nc2ccc(OC(F)(F)F)cc2)=NO1 (mixture of isomers) | 30% | – | – |
| CC1(c2ccccc2)CC([C@@H]2CCC[C@H]2C(=O)Nc2ccc3ncccc3c2)=NO1 (mixture of isomers) | 17% | – | – |
| CN(Cc1ccc(-c2ccccc2S(C)(=O)=O)cc1)C(=O)[C@@H]1CCC[C@H]1C1=NOC(C)(c2ccccc2)C1 (mixture of isomers) | 0% | – | – |
| CNC(=O)c1ccc(C2CC([C@@H]3CCC[C@H]3C(=O)NCc3ccc(OC(F)(F)F)cc3)=NO2)cc1 (mixture of isomers) | 14% | – | – |
| CS(=O)(=O)c1ccc(C2CC([C@@H]3CCC[C@H]3C(=O)NCc3ccc(OC(F)(F)F)cc3)=NO2)cc1 (mixture of isomers) | 26% | – | – |

| Structure (SMILES) | inhibition [1] | IC50 [2] | other results |
| --- | --- | --- | --- |
| CS(=O)(=O)c1ccc(C2CC([C@@H]3CCC[C@H]3c3cc(-c4ccccc4)on3)=NO2)cc1 (mixture of isomers) | 43% | – | – |
| Clc1cc(Cl)cc(C2CC([C@@H]3CCC[C@H]3c3cc(-c4ccccc4)on3)=NO2)c1 (mixture of isomers) | 35% | – | – |
| FC(F)(F)Oc1ccc(C2CC([C@@H]3CCC[C@H]3c3cc(-c4ccccc4)on3)=NO2)cc1 (mixture of isomers) | 18% | – | – |
| NC(=O)c1ccc(C2CC([C@@H]3CCC[C@H]3C(=O)NCc3ccc(OC(F)(F)F)cc3)=NO2)cc1 (mixture of isomers) | 0% | – | – |
| O=C(NCc1ccc(OC(F)(F)F)cc1)[C@@H]1CCC[C@H]1C1=NOC(CO)(c2ccccc2)C1 (mixture of isomers) | 23% | – | – |
| O=C(NCc1ccc(OC(F)(F)F)cc1)[C@@H]1CCC[C@H]1C1=NOC(c2ccccn2)C1 (mixture of isomers) | 0% | – | – |
| O=C(O)c1ccc(C2CC([C@@H]3CCC[C@H]3C(=O)NCc3ccc(OC(F)(F)F)cc3)=NO2)cc1 (mixture of isomers) | 0% | – | – |
| c1ccc(-c2cc([C@@H]3CCC[C@H]3C3=NOC(c4ccccc4)C3)no2)cc1 (mixture of isomers) | 13% | – | – |
| O=C(NCc1ccc(OC(F)(F)F)cc1)[C@@H]1CCC[C@H]1c1cc(-c2ccc(Cl)cc2)on1 (racemic) | 33% | – | – |
| O=C(NCc1ccc(OC(F)(F)F)cc1)[C@@H]1CCC[C@H]1c1cc(-c2ccccc2)on1 (racemic) | 38% | – | – |
| O=C(NCc1ccc(OC(F)(F)F)cc1)[C@@H]1CCC[C@H]1c1nc(-c2ccccc2)co1 (racemic) | 19% | – | – |
| O=C(NCc1ccc(OC(F)(F)F)cc1)[C@@H]1CCC[C@H]1c1ncc(-c2ccccc2)o1 (racemic) | 0% | – | – |
| CN(Cc1ccc(-c2ccccc2S(N)(=O)=O)cc1)C(=O)[C@@H]1CCC[C@H]1C(=O)NCc1ccc(OC(F)(F)F)cc1 (relative stereo) | – | 0.83 µM | Activity (Rattus norvegicus [8]): 35%; Activity (Rattus norvegicus [9]): 54%; Activity (Rattus norvegicus [3]): 31% |
| CC1(c2ccccc2)CC([C@@H]2CCC[C@H]2C(=O)NCc2ccc(OC(F)(F)F)cc2)=NO1 (relative stereo) [listing 1 of 2 here] | – | – | Activity (Rattus norvegicus [3]; 3 mg/kg): 31% |
| CC1(c2ccccc2)CC([C@@H]2CCC[C@H]2C(=O)NCc2ccc(OC(F)(F)F)cc2)=NO1 (relative stereo) [listing 2 of 2 here] | 35% | – | – |
| COc1ccc(CNC(=O)[C@@H]2CCC[C@H]2C2=NOC(C)(c3ccccc3)C2)cc1 (relative stereo) | 16% | – | – |
| CC1(c2ccccc2)CC([C@@H]2CCC[C@H]2C(=O)NCc2ccc(OC(F)(F)F)cc2)=NO1 (single isomer, unassigned; diastereomer a) [listing 1 of 2 here] | – | 0.96 µM | Activity (Rattus norvegicus [8]): 21%; Activity (Rattus norvegicus [3]; 3 mg/kg): 53% |
| CC1(c2ccccc2)CC([C@@H]2CCC[C@H]2C(=O)NCc2ccc(OC(F)(F)F)cc2)=NO1 (single isomer, unassigned; diastereomer a) [listing 2 of 2 here] | 64% | – | – |
| CC1(c2ccccc2)CC([C@@H]2CCC[C@H]2C(=O)NCc2ccc(OC(F)(F)F)cc2)=NO1 (single isomer, unassigned; diastereomer b) [listing 1 of 2 here] | – | – | Activity (Rattus norvegicus [3]; 3 mg/kg): 26% |
| CC1(c2ccccc2)CC([C@@H]2CCC[C@H]2C(=O)NCc2ccc(OC(F)(F)F)cc2)=NO1 (single isomer, unassigned; diastereomer b) [listing 2 of 2 here] | 37% | – | – |
| CC1(c2ccccc2)CC([C@@H]2CCC[C@H]2C(=O)NCc2ccc(OC(F)(F)F)cc2)=NO1 (single isomer, unassigned; diastereomer c) [listing 1 of 2 here] | – | 1.2 µM | Activity (Rattus norvegicus [3]; 3 mg/kg): 20% |
| CC1(c2ccccc2)CC([C@@H]2CCC[C@H]2C(=O)NCc2ccc(OC(F)(F)F)cc2)=NO1 (single isomer, unassigned; diastereomer c) [listing 2 of 2 here] | 48% | – | – |
